Assays:
[1] = Total systemic clearance in rat; assay type: ADME; conditions: in vivo
[2] = Intestinal excretion in iv dosed rat; assay type: ADME, organism-based, Intestine; conditions: in vivo, read-out: Drug excretion
[3] = Drug recovery in IV dosed BDC rat feces; assay type: ADME, organism-based; conditions: faeces, read-out: Drug recovery
[4] = Intestinal excretion in iv dosed dog; assay type: ADME, organism-based, Canis lupus familiaris, Intestine; conditions: in vivo, read-out: Drug excretion
[5] = Unbound fraction in human plasma; assay type: ADME, cell-free
[6] = Total systemic clearance in dog; assay type: ADME, Canis lupus familiaris; conditions: in vivo
[7] = Clearance in dog bile; assay type: ADME, tissue-based, Canis lupus familiaris; conditions: in vivo
in vivo [8] = conditions: rat
[9] = Drug elimination in human urine; assay type: ADME, tissue-based; conditions: read-out: Drug excretion
[10] = Intestinal clearance in dog; assay type: ADME, Canis lupus familiaris; conditions: in vivo
[11] = Drug excretion in rat bile; assay type: ADME, tissue-based; conditions: read-out: Drug excretion
[12] = Volume of distribution in human
[13] = Intestinal clearance in rat; assay type: ADME; conditions: in vivo
[14] = Clearance in rat urine; assay type: ADME, tissue-based
[15] = Total plasma clearance in rat assessed as hepatic blood flow; assay type: ADME, cell-free
in vivo [16] = conditions: rat, po
[17] = Renal excretion in rat; assay type: ADME, tissue-based, Kidney; conditions: in vivo, read-out: Drug excretion (converted)
[18] = Drug excretion in BDC dog urine; assay type: ADME, tissue-based, Canis lupus familiaris
[19] = Tubular reabsorption in dog; assay type: ADME, Canis lupus familiaris
[20] = Total plasma clearance in dog assessed as hepatic blood flow; assay type: ADME, cell-free, Canis lupus familiaris
[21] = Renal clearance in dog; assay type: ADME, tissue-based, Canis lupus familiaris, Kidney; conditions: in vivo
[22] = Oral bioavailability in human; assay type: ADME, organism-based; conditions: in vivo
[23] = Intestinal clearance in human; assay type: ADME
[24] = Elimination half life in human
[25] = Total plasma clearance in human assessed as hepatic blood flow; assay type: ADME, cell-free

Question: With COc1ccc(-n2nc(C(N)=O)c3c2C(=O)N(c2ccc(N4CCCC[14C]4=O)cc2)CC3)cc1 as the compound, how does the CL [1] read?
Answer: The CL was 20%.

Question: What about the dose excreted [2] of the same compound?
Answer: Its dose excreted is 20%.

Question: What about the dose excreted [3] of the same compound?
Answer: Its dose excreted is 20%.

Question: And the dose excreted [4]?
Answer: Its dose excreted is 20%.

Question: With C[C@H]1O[C@@H](O[C@H]2[C@@H](O)C[C@H](O[C@H]3[C@@H](O)C[C@H](O[C@H]4CC[C@@]5(C)[C@H](CC[C@@H]6[C@@H]5C[C@@H](O)[C@]5(C)[C@@H](C7=CC(=O)OC7)CC[C@]65O)C4)O[C@@H]3C)O[C@@H]2C)C[C@H](O)[C@@H]1O [DIGOXIN] as the compound, how does the Fu [5] read?
Answer: The Fu was 0.2.

Question: With CC(C)(O)[C@H](F)CN1Cc2cc(NC(=O)c3cnn4cccnc34)c(N3CCOCC3)cc2C1=O as the compound, how does the Fu [5] read?
Answer: Its Fu is 0.01.

Question: Which CL [6] does the source give for CS(=O)(=O)c1ccc(C(=O)Nc2ccc(Cl)c(-c3ccccn3)c2)c(Cl)c1 [VISMODEGIB] here?
Answer: The CL was 19%.

Question: What about the fraction unbound [5] of the same compound?
Answer: The fraction unbound was 0.01.

Question: And the CL [7]?
Answer: Its CL is 0.04 mL/min/kg.

Question: For O=C1CN(/N=C/c2ccc([N+](=O)[O-])o2)C(=O)N1 [NITROFURANTOIN], which fraction unbound [5] is on record?
Answer: Its fraction unbound is 0.4.

Question: Which results are given for CCOc1ccc(Cc2cc([C@@H]3O[C@H](CO)[C@@H](O)[C@H](O)[C@H]3O)ccc2Cl)cc1 [DAPAGLIFLOZIN]?
Answer: CL renal (in vivo [8]): 0.08 mL/min/kg; fraction unbound [5]: 0.085

Question: Which dose excreted [9] does the source give for COc1ccc(-n2nc(C(N)=O)c3c2C(=O)N(c2ccc(N4CCCCC4=O)cc2)CC3)cc1 [APIXABAN] here?
Answer: Its dose excreted is 27%.

Question: What about the CL [10] of the same compound?
Answer: The CL was > 42%.

Question: What about the dose excreted [11] of the same compound?
Answer: Its dose excreted is 10%.

Question: What about the Vd [12] of the same compound?
Answer: Its Vd is 0.3 L/kg.

Question: And the CL [13]?
Answer: Its CL is > 20%.

Question: And the CL renal [14]?
Answer: The CL renal was 11.8 mL/min/kg.

Question: And the QH [15]?
Answer: Its QH is < 5%.

Question: And the Tmax (in vivo [16])?
Answer: The Tmax was 2 h.

Question: And the CL renal [17]?
Answer: The CL renal was 0.217 mL/min/kg.

Question: What about the dose excreted [18] of the same compound?
Answer: The dose excreted was 21%.

Question: And the Drug absorption [19]?
Answer: The Drug absorption was 0.483 mL/min/kg.

Question: And the QH [20]?
Answer: Its QH is < 5%.

Question: And the CL renal [21]?
Answer: The CL renal was 0.333 mL/min/kg.

Question: What about the bioavailability [22] of the same compound?
Answer: The bioavailability was 49%.

Question: And the CL [23]?
Answer: Its CL is > 27%.

Question: And the half-life [24]?
Answer: Its half-life is 12 h.

Question: What about the QH [25] of the same compound?
Answer: Its QH is < 5%.

Question: And the fraction unbound [5]?
Answer: Its fraction unbound is 0.07.
